In patent US20130143840A1, “HEPARAN SULFATE REPLACEMENT THERAPY” (priority 2010, published 2013):
Entries after “also recorded” stand apart in the source; their conditions may differ.

Legend:
islet beta cells [1] = experiment: Hydrogen peroxide (ROS)-induced beta cell death after culture, Sytox green uptake; type: cell-based, mouse; details: for Resistance to H2O2 (ROS): then 30% H2O2 for 5 min; for ability to retain beta cell viability and induce ROS resistance (in words): summary of Table 3
heparanase = target: T1, heparanase (Homo sapiens, UniProt Q9Y251); experiment: Heparanase inhibitory activity (Freeman and Parish 1997 assay); type: biochemical
T1 sequence (Q9Y251 158-543 limits assumed): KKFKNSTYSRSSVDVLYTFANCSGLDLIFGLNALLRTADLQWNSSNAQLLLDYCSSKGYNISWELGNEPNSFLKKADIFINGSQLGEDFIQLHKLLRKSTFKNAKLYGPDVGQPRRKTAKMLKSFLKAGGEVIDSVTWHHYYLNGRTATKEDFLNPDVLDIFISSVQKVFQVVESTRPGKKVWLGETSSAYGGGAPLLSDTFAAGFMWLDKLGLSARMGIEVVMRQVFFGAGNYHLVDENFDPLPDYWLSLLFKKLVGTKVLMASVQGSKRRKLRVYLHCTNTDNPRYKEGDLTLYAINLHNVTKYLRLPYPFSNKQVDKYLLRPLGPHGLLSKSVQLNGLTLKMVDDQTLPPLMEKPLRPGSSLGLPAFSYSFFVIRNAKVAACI
T1 sequence (Q9Y251 36-109 limits assumed): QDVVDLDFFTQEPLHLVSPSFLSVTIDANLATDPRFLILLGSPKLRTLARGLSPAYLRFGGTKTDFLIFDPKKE

[2] = tested on: isolated BALB/c islet beta cells; experiment: Culture-induced death of isolated islet beta cells, Sytox green uptake by flow cytometry; type: cell-based, mouse; details: for Viability (%): untreated control 25-30% viability
Excerpt: (§1) Pancreatic islets were isolated from non-diabetic BALB/c mice and dissociated into a single cell suspension (>90% beta cells) by Dispase digestion. Following 2 days culture in standard tissue culture medium 62% of the beta cells were dead, based on uptake of the fluorescent DNA binding dye, Sytox green (FIG. 4, upper panels). […] In the presence of heparin the highly viable Calcein^+, PI^−population of beta cells was increased from 25% to 86%, the dead population. (Calcein^−, PI^+) reduced from 18% to 1% and the apoptotic population (Calcein^+, PI^+) improved from 52% to 6%. […] Table 1 provides a statistical analysis of the data showing that heparin, highly sulfated heparan sulfate (HS^hi) and PI-88 can protect mouse beta cells from culture-induced cell death.
(§2) The impact of heparin treatment on beta cell viability was also independent of the source of heparin (FIG. 8a) and, based on viable cell numbers, was not observed after 1 h but did occur after continuous culture with heparin for 1-2 days (FIG. 8b).

isolated islets = experiment: Heparan sulfate of islets isolated with free radical scavengers, Alcian blue staining; set-up: species or system mouse; details: combined: donors pretreated with BHA 120 mg/kg i.p. and islets isolated in presence of DMTU 50 mM
Excerpt: Transplantation of pancreatic islets is a well established therapeutic approach for treating Type I diabetes in animals and patients. However, recovery of fully functional islets is crucial if successful transplantation is to occur, irrespective of the problems associated with the recipient's immune response against the allograft. Based on the data described herein, preservation of intra-islet heparan sulfate during islet isolation is an important factor in ensuring that normal islet function is retained. […] In fact, following isotransplantation intra-islet heparan sulfate was still depleted 3 days after transplantation but returned to normal levels 7 days post-transplant (FIG. 13). […] These observations indicate that a combination of heparan sulfate and free radical scavengers could be used to preserve beta cell heparan sulfate during islet isolation.

[3] = tested on: isolated BALB/c islet beta cells; experiment: Beta cell viability by Calcein-AM / propidium iodide staining, flow cytometry; type: cell-based, mouse; details: 50 μg/ml, 2 days culture
Excerpt: as §1

islet beta cells [4] = experiment: Insulin content of beta cells from islets isolated in the presence of heparin, flow cytometry; type: cell-based, mouse; details: heparin 50 μg/ml in the islet isolation medium
Method: This deficiency in intra-islet heparan sulfate persisted for at least 3 days after transplantation of the islets into histocompatible recipients, normal heparan sulfate levels only being regained 7 days post-transplantation (FIG. 13). Inclusion of heparin (50 μg/ml) in the islet isolation medium improved the insulin content of the islet beta cells 2-fold (FIG. 14).

islet beta cells [5] = experiment: Intracellular insulin content of cultured beta cells; type: cell-based, mouse; details: 50 μg/ml, 2 days culture
Method: Comparison of the ability of HS^hi (50 μg/ml) and undersulfated HS(HS^lo, 50 μg/ml) to protect beta cells from 2 day culture-induced cell death, as shown by Sytox green uptake (upper panels). Lower panels depict the intracellular insulin content (green histograms) of the different preparations of cultured islet cells. Serum control (red histograms) and islet cell autofluorescence (black histograms) are also shown. 85-88% of the cultured islet cells were insulin^+ beta cells.
as §2

[6] = 50 μg/ml, 2 days culture, Sytox green

Compound	Resistance to H2O2 (ROS) (islet beta cells [1]; 50 μg/ml, 2 days culture)	Viability (%) [2, 6]	Hpse inhibition (heparanase)	also measured
Bis-lactobionic acid amide (C12 link)	−			protection from peroxide (ROS)-induced cell death / induction of ROS resistance (in words) (islet beta cells [1]; 50 μg/ml, 2 days culture): essentially unable to induce islet beta cells to become ROS resistance; heparanase inhibition (in words) (heparanase): strong to very strong heparanase inhibitors
Chondroitin sulfate C	−	32%	−	
Chitosan	−	30%	−	
Dextran sulfate	++++		++	ability to retain beta cell viability and induce ROS resistance (in words) (islet beta cells [1]; 50 μg/ml, 2 days culture): induced high beta cell viability and ROS resistance
Chondroitin sulfate D	−	32%	±	
Chondroitin sulfate A	−	50%	±	
Maltopentaose sulfate	++++		+++	ability to retain beta cell viability and induce ROS resistance (in words) (islet beta cells [1]; 50 μg/ml, 2 days culture): induced high beta cell viability and ROS resistance
Chondroitin sulfate B	−	46%	−	
COc1ccc(O)c(C(C)(C)C)c1 [BHA, butylated hydroxyanisole]				Alcian blue staining for heparan sulfate of isolated islets (in words) (isolated islets): increased
O-α-D-Glucopyranosyl-{(1→4)—O-α-D-glucopyranosyl}4-(1→4)-D-glucopyranose sulfate [Maltohexaose sulfate]	++++		+++	ability to retain beta cell viability and induce ROS resistance (in words) (islet beta cells [1]; 50 μg/ml, 2 days culture): induced high beta cell viability and ROS resistance
Heparin				beta cell survival at 5 μg/ml (in words) ([2]; 5 μg/ml, 2 days culture): equally active; also recorded: preserved beta cell survival; protection from culture-induced cell death / beta cell survival (in words) [2, 6]: dramatically enhanced; % dead beta cells in culture (Sytox green) ([2]; heparin 50 μg/ml co-culture, controls 72.5% dead): 5.3%; dead population (Calcein−, PI+) ([3]; control 18%): 1%; Calcein+, PI− population of beta cells (highly viable) ([3]; control 25%): 86%; apoptotic population (Calcein+, PI+) ([3]; control 52%): 6%; % beta cells Calceln − PI− (cell debris) ([3]; n = 3-5/group): 9.75 ± 1.9%; % viable after hydrogen peroxide treatment (islet beta cells [1]; 2 days culture with 50 μg/ml): 95%; % cell death following hydrogen peroxide treatment (islet beta cells [1]; heparin 50 μg/ml co-culture, freshly isolated cells 96.1% cell death): 5.0%; insulin content of islet beta cells, increase over control (islet beta cells [4]): 2 fold; change in the insulin content of cultured beta cells (in words) (islet beta cells [5]): little or no change
CNC(=S)NC [DMTU, dimethylthiourea]				Alcian blue staining for heparan sulfate of isolated islets (in words) (isolated islets): increased
